Results taken from patent US6358885B1, “Substituted phenylheterocyclic herbicides” (Mississippi State University, priority 1992, dated 2002).

Columns and labels:
Assay in all cases: Test B preemergence/postemergence greenhouse plant response rating 0 to 10
Details in all cases: 0 to 10 scale
sorghum = type: in vivo, Sorghum bicolor
Summary of the method: (§1)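 Test chemicals were sprayed onto freshly planted seed and, concurrently, onto young plants between the one and four leaf stage. After a twelve- to sixteen-day greenhouse period, each species was visually compared with untreated controls.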

blackgrass = type: in vivo, Alopecurus myosuroides
Summary of the method: as §1

lambsquarters = type: in vivo, Chenopodium album
Summary of the method: as §1

cheatgrass = type: in vivo, Bromus secalinus
Summary of the method: as §1

chickweed = type: in vivo, Stellaria media
Summary of the method: as §1

bedstraw = type: in vivo, Galium aparine
Summary of the method: as §1

sugar beet = type: in vivo, Beta vulgaris
Summary of the method: as §1

crabgrass = type: in vivo, Digitaria spp.
Summary of the method: as §1

wild buckwheat = type: in vivo, Polygonum convolvulus
Summary of the method: as §1

rape = type: in vivo, Brassica napus
Summary of the method: as §1

barley = type: in vivo, Hordeum vulgare
Summary of the method: as §1

velvetleaf = type: in vivo, Abutilon theophrasti
Summary of the method: as §1

wheat = type: in vivo, Triticum aestivum
Summary of the method: as §1

purple nutsedge = type: in vivo, Cyperus rotundus
Summary of the method: as §1

wild oat = type: in vivo, Avena fatua
Summary of the method: as §1

giant foxtail = type: in vivo, Setaria faberii
Summary of the method: as §1

corn = type: in vivo, Zea mays
Summary of the method: as §1

barnyardgrass = type: in vivo, Echinochloa crus-galli
Summary of the method: as §1

cocklebur = type: in vivo, Xanthium pensylvanicum
Summary of the method: as §1

morningglory = type: in vivo, Ipomoea hederacea
Summary of the method: as §1

rice = type: in vivo, Oryza sativa
Summary of the method: as §1

soybean = type: in vivo, Glycine max
Summary of the method: as §1

cotton = type: in vivo, Gossypium hirsutum
Summary of the method: as §1

C#CCOC(=O)COc1cc(-c2nn3c(c2Cl)CCCC3)c(F)cc1Cl [Compound 61]
Plant response rating, Sorghum (sorghum; POSTEMERGENCE, Rate 10 g/ha): 2
Plant response rating, Sorghum (sorghum; POSTEMERGENCE, Rate 50 g/ha): 3
Plant response rating, Sorghum (sorghum; PREEMERGENCE, Rate 50 g/ha): 0
Plant response rating, Blackgrass (blackgrass; POSTEMERGENCE, Rate 10 g/ha): 2
Plant response rating, Blackgrass (blackgrass; POSTEMERGENCE, Rate 50 g/ha): 3
Plant response rating, Blackgrass (blackgrass; PREEMERGENCE, Rate 10 g/ha): 0
Plant response rating, Blackgrass (blackgrass; PREEMERGENCE, Rate 50 g/ha): 2
Plant response rating, Lambsquarter (lambsquarters; POSTEMERGENCE, Rate 10 g/ha): 9
Plant response rating, Lambsquarter (lambsquarters; POSTEMERGENCE, Rate 50 g/ha): 9
Plant response rating, Lambsquarter (lambsquarters; PREEMERGENCE, Rate 50 g/ha): 9
Plant response rating, Cheatgrass (cheatgrass; POSTEMERGENCE, Rate 10 g/ha): 2
Plant response rating, Cheatgrass (cheatgrass; POSTEMERGENCE, Rate 50 g/ha): 3
Plant response rating, Cheatgrass (cheatgrass; PREEMERGENCE, Rate 10 g/ha): 0
Plant response rating, Cheatgrass (cheatgrass; PREEMERGENCE, Rate 50 g/ha): 2
Plant response rating, Chickweed (chickweed; POSTEMERGENCE, Rate 10 g/ha): 2
Plant response rating, Chickweed (chickweed; POSTEMERGENCE, Rate 50 g/ha): 2
Plant response rating, Chickweed (chickweed; PREEMERGENCE, Rate 50 g/ha): 3
Plant response rating, Bedstraw (bedstraw; POSTEMERGENCE, Rate 10 g/ha): 5
Plant response rating, Bedstraw (bedstraw; POSTEMERGENCE, Rate 50 g/ha): 9
Plant response rating, Bedstraw (bedstraw; PREEMERGENCE, Rate 10 g/ha): 0
Plant response rating, Bedstraw (bedstraw; PREEMERGENCE, Rate 50 g/ha): 5
Plant response rating, Sugar beet (sugar beet; POSTEMERGENCE, Rate 10 g/ha): 10
Plant response rating, Sugar beet (sugar beet; POSTEMERGENCE, Rate 50 g/ha): 10
Plant response rating, Sugar beet (sugar beet; PREEMERGENCE, Rate 50 g/ha): 10
Plant response rating, Crabgrass (crabgrass; POSTEMERGENCE, Rate 10 g/ha): 2
Plant response rating, Crabgrass (crabgrass; POSTEMERGENCE, Rate 50 g/ha): 2
Plant response rating, Crabgrass (crabgrass; PREEMERGENCE, Rate 10 g/ha): 0
Plant response rating, Crabgrass (crabgrass; PREEMERGENCE, Rate 50 g/ha): 0
Plant response rating, Wild buckwheat (wild buckwheat; POSTEMERGENCE, Rate 10 g/ha): 3
Plant response rating, Wild buckwheat (wild buckwheat; POSTEMERGENCE, Rate 50 g/ha): 9
Plant response rating, Wild buckwheat (wild buckwheat; PREEMERGENCE, Rate 50 g/ha): 0
Plant response rating, Rape (rape; POSTEMERGENCE, Rate 10 g/ha): 1
Plant response rating, Rape (rape; POSTEMERGENCE, Rate 50 g/ha): 8
Plant response rating, Rape (rape; PREEMERGENCE, Rate 50 g/ha): 4
Plant response rating, Barley (barley; POSTEMERGENCE, Rate 10 g/ha): 1
Plant response rating, Barley (barley; POSTEMERGENCE, Rate 50 g/ha): 2
Plant response rating, Barley (barley; PREEMERGENCE, Rate 10 g/ha): 0
Plant response rating, Barley (barley; PREEMERGENCE, Rate 50 g/ha): 0
Plant response rating, Velvetleaf (velvetleaf; POSTEMERGENCE, Rate 10 g/ha): 2
Plant response rating, Velvetleaf (velvetleaf; POSTEMERGENCE, Rate 50 g/ha): 10
Plant response rating, Velvetleaf (velvetleaf; PREEMERGENCE, Rate 50 g/ha): 10
Plant response rating, Wheat (wheat; POSTEMERGENCE, Rate 10 g/ha): 2
Plant response rating, Wheat (wheat; POSTEMERGENCE, Rate 50 g/ha): 3
Plant response rating, Wheat (wheat; PREEMERGENCE, Rate 50 g/ha): 0
Plant response rating, Nutsedge (purple nutsedge; POSTEMERGENCE, Rate 10 g/ha): 0
Plant response rating, Nutsedge (purple nutsedge; POSTEMERGENCE, Rate 50 g/ha): 2
Plant response rating, Nutsedge (purple nutsedge; PREEMERGENCE, Rate 50 g/ha): 10
Plant response rating, Wild oat (wild oat; POSTEMERGENCE, Rate 10 g/ha): 1
Plant response rating, Wild oat (wild oat; POSTEMERGENCE, Rate 50 g/ha): 2
Plant response rating, Wild oat (wild oat; PREEMERGENCE, Rate 50 g/ha): 2
Plant response rating, Giant foxtail (giant foxtail; POSTEMERGENCE, Rate 10 g/ha): 2
Plant response rating, Giant foxtail (giant foxtail; POSTEMERGENCE, Rate 50 g/ha): 2
Plant response rating, Giant foxtail (giant foxtail; PREEMERGENCE, Rate 10 g/ha): 0
Plant response rating, Giant foxtail (giant foxtail; PREEMERGENCE, Rate 50 g/ha): 0
Plant response rating, Corn (corn; POSTEMERGENCE, Rate 10 g/ha): 3
Plant response rating, Corn (corn; POSTEMERGENCE, Rate 50 g/ha): 5
Plant response rating, Corn (corn; PREEMERGENCE, Rate 50 g/ha): 0
Plant response rating, Barnyardgrass (barnyardgrass; POSTEMERGENCE, Rate 10 g/ha): 2
Plant response rating, Barnyardgrass (barnyardgrass; POSTEMERGENCE, Rate 50 g/ha): 2
Plant response rating, Barnyardgrass (barnyardgrass; PREEMERGENCE, Rate 10 g/ha): 0
Plant response rating, Barnyardgrass (barnyardgrass; PREEMERGENCE, Rate 50 g/ha): 0
Plant response rating, Cocklebur (cocklebur; POSTEMERGENCE, Rate 10 g/ha): 4
Plant response rating, Cocklebur (cocklebur; POSTEMERGENCE, Rate 50 g/ha): 8
Plant response rating, Cocklebur (cocklebur; PREEMERGENCE, Rate 10 g/ha): 0
Plant response rating, Cocklebur (cocklebur; PREEMERGENCE, Rate 50 g/ha): 0
Plant response rating, Morningglory (morningglory; POSTEMERGENCE, Rate 10 g/ha): 7
Plant response rating, Morningglory (morningglory; POSTEMERGENCE, Rate 50 g/ha): 10
Plant response rating, Morningglory (morningglory; PREEMERGENCE, Rate 50 g/ha): 3
Plant response rating, Rice (rice; POSTEMERGENCE, Rate 10 g/ha): 2
Plant response rating, Rice (rice; POSTEMERGENCE, Rate 50 g/ha): 4
Plant response rating, Rice (rice; PREEMERGENCE, Rate 50 g/ha): 0
Plant response rating, Soybean (soybean; POSTEMERGENCE, Rate 10 g/ha): 2
Plant response rating, Soybean (soybean; POSTEMERGENCE, Rate 50 g/ha): 3
Plant response rating, Soybean (soybean; PREEMERGENCE, Rate 50 g/ha): 0
Plant response rating, Cotton (cotton; POSTEMERGENCE, Rate 10 g/ha): 9
Plant response rating, Cotton (cotton; POSTEMERGENCE, Rate 50 g/ha): 10
Plant response rating, Cotton (cotton; PREEMERGENCE, Rate 10 g/ha): 0
Plant response rating, Cotton (cotton; PREEMERGENCE, Rate 50 g/ha): 0
